Data published in patent US20260250318A1, “COMPOSITIONS AND METHODS FOR CROSSING THE BLOOD BRAIN BARRIER” (VOYAGER THERAPEUTICS, INC., priority 2022, published 2026).

Legend:
Details in all cases: synthetic library passage 3, intravenous, relative to wild-type AAV9
brain [1] = assay: NGS fold enrichment of synthetic library (passage 3) in BALB/c mice, first cross-species screen; assay type: in vivo
Procedure, shortened: (§1)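 Fold enrichment versus wild-type AAV9 was derived by NGS of RT-PCR-amplified RNA from nervous tissue, collected e.g. 28 days after IV dosing […]. The library (passage 3) was given to two NHPs aged 2-4 years and to 6-8-week BALB/c and C57Bl/6 mice (n=3 each).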

[2] = test system: brain, spinal cord, and DRG of the NHPs; assay: NGS fold enrichment of synthetic library (passage 3) in NHPs, first cross-species screen; assay type: in vivo, cynomolgus macaques (Macaca fascicularis)
Procedure, shortened: as §1

brain [3] = assay: NGS fold enrichment of synthetic library (passage 3) in C57Bl/6 mice, first cross-species screen; assay type: in vivo
Procedure, shortened: as §1

[4] = RNA from brain of BALB/c mice, NGS
[5] = RNA from spinal cord of NHPs, NGS
[6] = RNA from brain of C57Bl/6 mice, NGS

| Sequence | Fold enrichment over AAV9 in the brain of Mice (BALB/c) (brain [1]; [4]) [fold] | Fold enrichment over AAV9 in the brain of NHPs ([2]; RNA from brain of NHPs, NGS) [fold] | Fold enrichment over AAV9 in the spinal cord of NHPs [2, 5] [fold] | Fold enrichment over AAV9 in the brain of Mice (C57Bl/6) (brain [3]; [6]) [fold] | Fold enrichment over AAV9 in the brain of Mice (BALB/c) (brain [1]; RNA NGS, brain of BALB/c mice) [fold] | Fold enrichment over AAV9 in the brain of NHPs ([2]; RNA NGS, brain of NHPs) [fold] | Fold enrichment over AAV9 in the spinal cord of NHPs ([2]; RNA NGS, spinal cord of NHPs) [fold] | Fold enrichment over AAV9 in the brain of Mice (C57Bl/6) (brain [3]; RNA NGS, brain of C57Bl/6 mice) [fold] |
| --- | --- | --- | --- | --- | --- | --- | --- | --- |
| GSGQNQQKSLNGNT | 0.851 | 1.275 | 8.573 | 0.586 |  |  |  |  |
| GSGQNQQKVSPLLT | 0.806 | 1.314 | 1.602 | 0.755 |  |  |  |  |
| GSGQNQQLAITLGT |  |  |  |  | 0.143 | 1.011 | 0.000 | 0.877 |
| GSGQNQQLANMVTT |  |  |  |  | 0.987 | 1.014 | 1.739 | 1.253 |
| GSGQNQQLGSRQCT |  |  |  |  | 0.407 | 1.102 | 0.183 | 0.987 |
| GSGQNQQLKENRST |  |  |  |  | 1.118 | 2.765 | 0.062 | 1.149 |
| GSGQNQQLKNSTST | 0.538 | 1.235 | 1.703 | 1.063 |  |  |  |  |
| GSGQNQQLKSSAQT |  |  |  |  | 0.716 | 1.891 | 1.197 | 0.908 |
| GSGQNQQLPHSNLT |  |  |  |  | 0.283 | 1.521 | 1.838 | 0.442 |
| GSGQNQQLQTLIRT |  |  |  |  | 0.514 | 1.538 | 1.425 | 0.813 |
| GSGQNQQLSAKSST |  |  |  |  | 1.115 | 1.809 | 1.567 | 1.224 |
| GSGQNQQLSGKSVT |  |  |  |  | 0.930 | 1.070 | 1.524 | 1.276 |
| GSGQNQQLSRDAST |  |  |  |  | 0.611 | 1.754 | 3.716 | 1.877 |
| GSGQNQQLVSRVQT | 0.466 | 1.381 | 1.195 | 0.656 |  |  |  |  |
| GSGQNQQMAGAFRT |  |  |  |  | 0.762 | 1.003 | 1.784 | 1.307 |
| GSGQNQQMPGLSST | 0.181 | 1.204 | 1.887 | 0.234 |  |  |  |  |
